Each structure is given as a SMILES string.

Consider one molecule from patent US20110288154A1, “RNA Interference Mediated Inhibition of Epithelial Sodium Channel (ENaC) Gene Expression Using Short Interfering Nucleic Acid (siNA)” (MERCK & CO., INC., priority 2008, published 2011).

The assay deals with ENaC. As to the kind of experiment: FLIPR assay of sodium transport in recombinant HEK cells over expressing ENaC. It counts as cell-based, human. The settings on record: recombinant HEK cells expressing ENaC. The protocol: Recombinant HEK293 cell line (expressing ENaC beta & gamma) SCNN1B (P618AY620L)+SCNN1G (P624stop) #24. were grown at 37 deg in the presence of CO2 and were cultured in M1 medium M1+0.5 mg/ml geneticin and 0.2 mg/ml hygromycin.
Functional Effects on ENaC via FLIPR in Cells Over Expressing ENaCa: A reverse transfection methodology was used to transfect the HEK recombinant cell line. 5 ul of siRNA (diluted in Optimem to the appropriate concentration) was mixed with 5 ul of the Gemini lipid transfection reagent diluted in Optimem in 384 well non-coated FLIPR plate. Plates were incubated at room temperature for 20 minutes to allow complex formation. Cells were harvested, spun down, diluted to 3×10^5/ml and plated out at 40 ul/well (12K/well) in 384 well plate format containing the transfection complex. The plates were incubated overnight for 20 hours. The cells were then transduced with BacMam virus expressing ENaC alpha (BacMam viruses expressing SCNN1A, GRITS 29703, titre 0.356×10^8/ml). 30 ul of virus was added (1.7%) 20K/well, MOI was approximately 1. Cells were incubated for 24 hours. On day of the FLIPR assay, media was aspirated, leaving 10 ul volume. 20 ul of dye per well was loaded (FMP2 Blue dye, R8181, MDS. For each pot, 133 ml Tyrodes buffer was diluted to make 1× stock prior to assay). The plate was incubated for 0.5 hours at room temperature and 10 ul of the compound added on-line prior to FLIPR read (FLIPR settings: protocol Na MP.fcf, with Exposure length 0.4 sec and Filter #2). Compound plate: 1 ul volume, column 1, 2 and 3 are 16, 4 and 0 uM amiloride final (1/200 dilution) (IC80, IC50 and ctrl).

Usually IC50 stands for the concentration at which inhibition is half-maximal. The IC80 is the concentration at which the effect reaches the 80% level. Regarding `N=C(N)NC(=O)c1nc(Cl)c(N)nc1N` [Amiloride, reference compound], the IC50 (read-out: IC50 of inhibitor in FLIPR assay) is 4 µM. Besides, for the setting “read-out: IC80 of inhibitor in FLIPR assay”, the IC80 is 16 µM.
